Measured values reported in patent US12390459B2, “Methods for solid tumor treatment” (CRITITECH, INC., priority 2016, dated 2025).
Like-named read-outs stand apart in the source and are kept apart here.

How the values were obtained:
[1] = Particle size analysis (light obscuration and laser diffraction); format: physicochemical
Experimental: Particle size was analyzed by both light obscuration and laser diffraction methods. An Particle Sizing Systems AccuSizer 780 SIS system was used for the light obscuration method and Shimadzu SALD-7101 was used for the laser diffraction method.
The vials were vortexed for approximately 10 seconds and then sonicated in a sonic bath approximately 1 minute.
The vial was vortexed for approximately 10 seconds and then sonicated in a sonic bath for approximately 2 minutes. This suspension was used for laser diffraction analysis. Unused suspension was poured into a 125 mL particle-free plastic bottle, which was then filled to approximately 100 mL with filtered dispersant. The suspension was vortex for approximately 10 seconds and then sonicated in the sonic bath for approximately 2 minutes. This diluted suspension was used for light obscuration analysis.
A background test was first performed prior to analyzing particles on the AccuSizer 780 SIS. A new particle-free plastic bottle was filled with blank suspension solution by pumping from a reservoir, using a peristaltic pump, through a 0.22 μm Millipore filter and into the bottle. A background analysis was run to ensure the particle/mL count was below 100 particles/mL. […] Once the analysis was completed, the background data was removed and any measurement with less than four counts was removed.
To analyze particles on SALD-7101 using a batch cell, the analysis was started by choosing Manual Measurement. The refractive index was set as 1.5 to 1.7. The batch cell was filled with filtered dispersant just past the etched line. The blank measurement was ran. […] The measurements were executed, and the resulting graph with the highest level of confidence was selected; background was automatically accounted for.

[2] = BET surface area analysis; format: physicochemical
Experimental: As used herein, the “specific surface area” is the total surface area of the taxane particle per unit of taxane mass as measured by the Brunauer-Emmett-Teller (“BET”) isotherm (i.e.: the BET SSA). As will be understood by those of skill in the art, the “taxane particles” can include both agglomerated taxane particles and non-agglomerated taxane particles; since the SSA is determined on a per gram basis it takes into account both agglomerated and non-agglomerated taxane particles in the composition. The BET specific surface area test procedure is a compendial method included in both the United States Pharmaceopeia and the European Pharmaceopeia.
A known mass between 200 and 300 mg of the analyte was added to a 30 mL sample tube. […] The automated test was then carried out using the BETWIN® software package and the surface area of each sample was subsequently calculated.

[3] = Paclitaxel dissolution study, USP Apparatus II (Paddle); format: physicochemical; conditions: methanol/water 50/50 (v/v), 37° C., pH 7, 75 rpm
Experimental: Beads were transferred to a stainless steel mesh container and placed in the dissolution bath containing methanol/water 50/50 (v/v) media at 37° C., pH 7, and a USP Apparatus II (Paddle), operating at 75 rpm. At 10, 20, 30, 60, and 90 minutes, a 5 mL aliquot was removed, filtered through a 0.22 μm filter and analyzed on a U(V/V)is spectrophotometer at 227 nm. Absorbance values of the samples were compared to those of standard solutions prepared in dissolution media to determine the amount of material dissolved.

[4] = tested on: PC-3 human prostate carcinoma; experiment: PC-3 prostate carcinoma xenograft, Study P-PPr-01-2015; format: in vivo, nude mouse; conditions: IV 30 mg/kg qwk×3
Experimental: Tumors were measured twice per week. Partial treatment outcome was based on percent tumor growth inhibition (% TGI), defined as the percent difference between the Day 32 median tumor volumes of treated and vehicle-control mice.

[5] = tested on: MDA-MB-231 human breast cancer xenografts; conditions: for complete tumor regressions (animals): 30 mg/kg IV qwk×3; for animal deaths: 30 mg/kg IV qwk×3, 10 mice; for mean tumor weight: 30 mg/kg IV qwk×3, Day 29; for inhibition of growth of the xenografts: 30 mg/kg IV qwk×3, Day 29 vs vehicle; for % difference at nadir of response: 30 mg/kg IV qwk×3, Day 33; for tumor-free animals at the end of the study: 30 mg/kg IV qwk×3, Day 61; for tumor-free animals: IV treated group, Day 49
Source text: Study Design: A total of 88 female NCr-nu/nu mice were implanted with MDA-MB-231 breast tumor fragments from an in vivo passage subcutaneously (SC) on the right flank. The day of tumor cell implantation (Aug. 4, 2016) was designated as Day 0.
The NanoPac™ and NanoDoce™ are suspensions. Prior to filling each syringe and between the injections of each animal, the test article was gently swirled/inverted. Intratumoral administration of the test material entailed the use of six needle tracks per tumor (27 G ½ inch needle). One sixth of the dose volume was injected as a slow bolus in each track, with ˜15 seconds pause before removing the needle slowly, and moving to the next injection site spaced over the surface of the tumor. The animals were observed once daily for mortality and moribundity. The mice were weighed and the tumor measurements were taken twice weekly starting on the first day of treatment. Length and width were measured for each tumor. Tumor volume was determined using the formula for an ellipsoid sphere: Length×Width^2/2=Volume(mm^3)
This formula was also used to calculate tumor weight, assuming unity density (1 mm^3=1 mg). Limit of tumor detection was 32 mg (4×4 mm). The experiment lasted for 61 days from the day of tumor implant. Animals whose weight decreased more than 30% from the weight on the first day of treatment or whose tumor reached 4,000 mg in weight, ulcerated, or sloughed off was euthanized prior to study termination.

[6] = tested on: MX-1 human breast cancer xenografts; conditions: for animal deaths / animals euthanized: 30 mg/kg IV qwk×3, 10 mice; for inhibition of growth of the xenografts: 30 mg/kg IV qwk×3 vs vehicle
Source text: Tumor model: A total of 88 female NCr-nu/nu mice were implanted with MX-1 breast tumor fragments from an in vivo passage subcutaneously (SC) on the right flank. The day of tumor cell implantation was designated as Day 0.
The NanoPac™ and NanoDoce™ are suspensions. Prior to filling each syringe and between the injections of each animal, the test article was gently swirled/inverted. Animals were observed once daily for mortality and moribundity. Adverse signs were documented by exception only. Body weights were collected twice weekly beginning on SD. Tumor measurements were taken twice weekly beginning on SD, using a digital caliper. Length and width were measured for each tumor. Tumor volume was determined using the formula for an ellipsoid sphere: Length×Width 2/2=Volume (mm^3). This formula was also used to calculate tumor weight, assuming unity density (1 mm^3=1 mg). Limit of tumor detection is 32 mg (4×4 mm). The experiment lasted for 63 days from the day of tumor implant. Animals whose weight decreased more than 30% from the weight on the first day of treatment or whose tumor reached 4,000 mg in weight, ulcerated, or sloughed off was euthanized prior to study termination.

[7] = tested on: JIMT-1 human breast cancer xenografts; experiment: JIMT-1 human breast cancer xenograft study; format: in vivo, CB.17 SCID mice; conditions: 30 mg/kg iv qwk×3
Experimental: Test articles were as follows:
Adjust volume accordingly for body weight. […] Animals were monitored individually. […] When the endpoint is reached, the animals were euthanized.
Tumor growth inhibition was evaluated on D29 (the last day of dosing for animals receiving 5 admins, G1, 3, 4) at 1000 mm^3 and the study ended on D50 with a revised tumor volume endpoint of 600 mm^3 for overall survival analysis.

[8] = Paclitaxel concentration in JIMT-1 tumor tissue (LC/MS/MS); format: in vivo, CB.17 SCID mice; conditions: Group 5: 30 mg/kg, IV, qwk × 3; day 50, 35 days after last dose; individual animals
Experimental: The timing of the analysis for each group relative to the last day of drug administration is as follows: • 21 days after last dose for groups 1, 3 and 4; • 49 days for group 2; and • 35 days for group 5.
Tissue processing was carried out as follows: • 1. Control tumor tissue and tumor tissue samples were weighed and three volumes of water were added to each to yield samples with a dilution factor of 4. • 2. Tumor tissues were homogenized with a homogenizer FastPrep®-24 using a speed of 4.0 m/sec for 100 sec. • 3. 50 μL of control tumor tissue homogenate was added to separate wells of a 96 well plate for STDs, QC samples and blanks. • 4. To the control tumor tissue homogenates, 50 μL of the appropriate solution was added for STDs and QC samples (50 μL of diluent was added for blanks) • 5. For tumor tissue homogenate study samples, 50 μL of each sample was added to separate well of the 96-well plate and 50 μL aliquot of diluent was added to each tissue sample. • 6. To all samples, 200 μL of internal standard (200 ng/mL Warfarin) solution in ACN was added. • 7. The plate was vortexed vigorously for 10 minutes and then centrifuged for 10 minutes at 4000 rpm (Sorvall Legend X1R centrifuge, Thermo Scientific) at 15° C. • 8. After centrifugation, 100 μL aliquots of supernatant were transferred to a new 96-well plate containing 100 μL of water in each well. • 9. […]

[9] = Docetaxel dissolution study, USP Apparatus II (Paddle); format: physicochemical; conditions: for Docetaxel Dissolution: methanol/water 15/85, 37° C., pH 7
Experimental: At 5, 15, 30, 60, 120 and 225 minutes, a 5 mL aliquot was removed, filtered through a 0.22 μm filter, and analyzed on a UV/VIS spectrophotometer at 232 nm. Absorbance values of the samples were compared to those of standard solutions prepared in dissolution media to determine the amount of material dissolved.

SMILES: CC(=O)O[C@H]1C(=O)[C@@]2(C)[C@H]([C@H](OC(=O)c3ccccc3)[C@]3(O)C[C@H](OC(=O)[C@H](O)[C@@H](NC(=O)c4ccccc4)c4ccccc4)C(C)=C1C3(C)C)[C@]1(OC(C)=O)CO[C@@H]1C[C@@H]2O [Paclitaxel Raw Material, paclitaxel]
- Number Mean [1]: 1.16 um
- Surface Area ([2]; BET): 10.4 m^2/g
- BET surface area ([2]; Example 1): 7.25 m^2/g
- Dissolution (30 min) [3]: 18%

SMILES: CC(=O)O[C@H]1C(=O)[C@@]2(C)[C@H]([C@H](OC(=O)c3ccccc3)[C@]3(O)C[C@H](OC(=O)[C@H](O)[C@@H](NC(=O)c4ccccc4)c4ccccc4)C(C)=C1C3(C)C)[C@]1(OC(C)=O)CO[C@@H]1C[C@@H]2O [paclitaxel]
- TGI [4]: significant TGI
- survival extension [4]: significantly improved survival extension
- complete tumor regressions (animals) [5]: six
- animal deaths [5]: without animal deaths
- mean tumor weight [5]: 118 mg
- inhibition of growth of the xenografts [5]: significantly inhibited the growth
- % difference at nadir of response [5]: −97.4%
- tumor-free animals at the end of the study [5]: three
- tumor-free animals [5]: three
- animal deaths / animals euthanized [6]: without animal deaths
- mean tumor weight ([6]; 30 mg/kg IV qwk×3, Day 24): 309 mg
- % difference at nadir of response ([6]; 30 mg/kg IV qwk×3, Day 31): −86.0%
- inhibition of growth of the xenografts [6]: significantly inhibited the growth
- TGI [7]: significant TGI
- survival extension [7]: significantly improved survival extension
- Paclitaxel Concentration in tumor tissue [8]: BQL < 1 ng/g

SMILES: CC(=O)O[C@@]12CO[C@@H]1C[C@H](O)[C@@]1(C)C(=O)[C@H](O)C3=C(C)[C@@H](OC(=O)[C@H](O)[C@@H](NC(=O)OC(C)(C)C)c4ccccc4)C[C@@](O)([C@@H](OC(=O)c4ccccc4)[C@H]21)C3(C)C [Docetaxel Raw Material, docetaxel]
- Number Mean [1]: 1.58 um
- Volume Mean [1]: 5.05 um
- Docetaxel Dissolution ([9]; 0 minutes): 0.0%
- Docetaxel Dissolution ([9]; 5 minutes): 3.2%
- Docetaxel Dissolution ([9]; 15 minutes): 6.9%
- Docetaxel Dissolution ([9]; 30 minutes): 11.2%
- Docetaxel Dissolution ([9]; 60 minutes): 16.4%
- Docetaxel Dissolution ([9]; 120 minutes): 22.4%
- Docetaxel Dissolution ([9]; 225 minutes): 26.8%
- Dissolution (30 min) ([9]; methanol/water 15/85 (v/v), 37° C., pH 7, 75 rpm): 11%

SMILES: CC(=O)O[C@@]12CO[C@@H]1C[C@H](O)[C@@]1(C)C(=O)[C@H](O)C3=C(C)[C@@H](OC(=O)[C@H](O)[C@@H](NC(=O)OC(C)(C)C)c4ccccc4)C[C@@](O)([C@@H](OC(=O)c4ccccc4)[C@H]21)C3(C)C [docetaxel]
- complete tumor regressions (animals) [5]: 10
- animal deaths [5]: no animal deaths
- mean tumor weight [5]: 16 mg
- inhibition of growth of the xenografts [5]: significantly inhibited the growth
- % difference at nadir of response [5]: −99.8%
- mean tumor volume ([5]; 30 mg/kg IV qwk×3, Day 40): 0
- tumor-free animals at the end of the study [5]: 10
- tumor-free animals [5]: ten
- animal deaths / animals euthanized [6]: two animals euthanized for body weight loss >30%
- mean tumor weight ([6]; 30 mg/kg IV qwk×3, Day 28): 0.9 mg
- animals with completely regressed tumors ([6]; 30 mg/kg IV qwk×3, Day 31): nine
- surviving animals tumor-free at the end of the study ([6]; 30 mg/kg IV qwk×3, Day 63): eight
- inhibition of growth of the xenografts [6]: significantly inhibited the growth
